Assay results taken from US20090053138A1, “Stabilized Aptamers to Platelet Derived Growth Factor and their Use as Oncology Therapeutics” (priority 2002, published 2009).
{PEG40k} = 40 kDa polyethylene glycol; [invdT] = inverted (3'-3') thymidine; [HEG] = hexaethylene glycol spacer

Assays:
[1] = molecular target: T1, PDGF BB (Homo sapiens, UniProt P01127); experiment: Competition binding assay, PDGF-BB; design: purchased PeproTech, Rocky Hill, N.J; conditions: scrambled variant
Procedure: Binding reactions were carried out in phosphate-buffered saline (Cellgro, Herndon, Va.) containing 0.2 mg/mL bovine serum albumin (NEB) and 0.02 mg/mL tRNA (Sigma, St. Louis, Mo.). The reactions were equilibrated for a period of 15-30 minutes at room temperature, then filtered through a sandwich of nitrocellulose (Protran membrane, Perkin-Elmer, Boston, Mass.) and nylon (Hybond membrane, Amersham, Piscataway, N.J.) membranes to separate target bound aptamer from free aptamer.
Next, a study was done to determine whether ARC126 cross reacted with PDGF-BB of species other than human. Competition binding assays were set up by dot blot analysis, as previously described, using human, rat, and mouse PDGF-BB (PeproTech, Rocky Hill, N.J.).
The competitive binding assay previously described was used to determine the in vitro binding affinity and selectivity of ARC594 for different PDGF isoforms. Different concentrations of unlabeled, competitor aptamer were titrated in separate reactions against a fixed (<0.1 nM) amount of ^32P-radiolabeled ARC594 in buffer containing a fixed amount (0.1 nM) of the aptamer's cognate target (PDGF-BB; PeproTech). UnPEGylated version of ARC594 was radiolabeled at the 5′ terminus by incubation with γ-^32P-ATP (ICN) and polynucleotide kinase (NEB). Binding reactions were carried out in phosphate-buffered saline (Cellgro) containing 0.2 mg/mL bovine serum albumin (NEB) and 0.02 mg/mL tRNA (Sigma). The reactions were equilibrated for a period of 15-30 minutes at room temperature, then filtered through a sandwich of nitrocellulose (Protran membrane, Perkin-Elmer) and nylon (Hybond membrane, Amersham) membranes to separate target bound aptamer from free aptamer. […] The data was expressed as the ratio of the counts per minute (CPM) of radioactivity due to ^32P-ARC594 bound to PDGF BB on the nitrocellulose membrane (CPMnitrocellulose or CPMnc) over the total CPM (CPMtotal=CPMnitrocellulose+CPMnylon).

[2] = molecular target: T1, PDGF BB; experiment: 3T3 cell proliferation assay (PDGF-BB induced); format: cell-based, rat; design: purchased PeproTech, Rocky Hill, N.J
Procedure: 3T3 cells, a rat fibroblast cell line (ATCC, Manassas, Va.), were plated 3,000 cells/well in a 96 well plate one day prior to the start of the assay in 100 ul DMEM/10% FCS. The following day, cells were washed once with straight DMEM and then 75 ul DMEM/0.8% FCS was added to each well. […] Cells were incubated for 3 days. Following incubation 10 ul MTT (Promega, Madison, Wis.) was added to each well and incubated for an additional 1.5 hours. Media was then removed, 200 ul Isopropanol (2-propanol) was added to each well, cells were re-suspended thoroughly and absorbance at 570 nm was read on a 96 well plate reader.
(§1) 3T3 cells, which are derived from a rat fibroblast cell line (ATCC, Manassas, Va.), were used in a proliferation assay to test potency of modified ARC513 aptamers. 3T3 fibroblast cells have PDGF receptors on their cell-surface and respond to mitogen, e.g., PDGF stimulation by proliferation. The assay was performed as follows: 3T3 cells were plated 3,000 cells/well in a 96 well plate one day prior to the start of the assay in 100 ul DMEM/10% FCS. The following day, cells were washed once with straight DMEM and then 75 ul DMEM/0.8% FCS was added to each well. Then 25 ul of PDGF-BB (PeproTech, Rocky Hill, N.J.) at a 50 ng/ml final concentration was added to each well +/− aptamer condition to be tested. […] The functional PDGF aptamer dilutions usually consisted of 6 points in 2-fold serial dilutions.
(§2) Cells were incubated for 3 days. Following incubation 10 ul MTT (Promega, Madison, Wis.) was added to each well and incubated for an additional 1.5 hours. Media was removed, 200 μl Isopropanol (2-propanol) was added to each well, cells were re-suspended thoroughly and absorbance at 570 nm was read on a 96 well plate reader. The present example depicts the potency comparison of PDGF aptamer ARC: 513 to that of ARC 513 variants.
The 3T3 proliferation assay previously described was used to test potency of all PEG conjugated ARC513 variants described immediately above. The assay was performed as follows: 3T3 cells were plated 3,000 cells/well in a 96 well plate one day prior to the start of the assay in 100 ul DMEM/10% FCS. The following day, cells were washed once with straight DMEM and then 75 ul DMEM/0.8% FCS was added to each well. Then 25 ul of PDGF-BB (PeproTech, Rocky Hill, N.J.) at a 50 ng/ml final concentration was added to each well +/− aptamer condition to be tested. […] The functional PDGF aptamer dilutions usually consisted of 6 points in 2-fold serial dilutions.
as §2, with “ARC513” for “ARC: 513”, “PEGylated ARC513 aptamers.” for “ARC 513 variants.”
as §1, with “3T3” for “3T3 cells, which are derived from a rat fibroblast cell line (ATCC, Manassas, Va.), were used in a proliferation assay to test potency of modified ARC513 aptamers. 3T3”, “100 μl” for “100 ul”
as §2, with “[…]” for “μl”, “reader.” for “reader. The present example depicts the potency comparison of PDGF aptamer ARC: 513 to that of ARC 513 variants.”

T1 sequence (P01127 82-190 limits assumed): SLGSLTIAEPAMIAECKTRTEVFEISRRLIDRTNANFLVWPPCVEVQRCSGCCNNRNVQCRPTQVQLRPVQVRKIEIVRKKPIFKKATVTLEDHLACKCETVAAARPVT

Substance | binding to PDGF [1] | effect on 3T3 cell proliferation ([2]; scrambled control) | concentration reducing the PDGF driven increase in proliferation to background levels [2] | potency compared to PDGF neutralizing polyclonal antibody [2] | potency of legacy aptamers vs newly synthesized ([2]; after lyophilization and storage at −20 degrees celsius for 2 years) | effect of 5′ conjugation to 30 kDa and 40 kDa PEG groups on in vitro activity ([2]; relative to ARC126)
5′-(SEQ ID NO.4)-HEG-(SEQ ID NO:5)-HEG-(SEQ ID NO:6)-3 (chain 1 CAGCGUACG; chain 2 CGTACCGATUCA; chain 3 TGAAGCUG; HEG spacers joining pieces; synthetic aptamer; modified_base (4)..(4) cytidine is 2′-fluoro; modified_base (5)..(5) gm; modified_base (6)..(6) uridine is 2′-fluoro; modified_base (8)..(8) cytidine is 2′-fluoro; modified_base (9)..(9) gm; modified_base (7)..(7) gm; modified_base (10)..(10) uridine is 2′-fluoro; modified_base (11)..(11) cytidine is 2′-fluoro; modified_base (12)..(12) adenosine is 2′-O-Methyl; modified_base (6)..(6) cytidine is 2′-fluoro; modified_base (7)..(7) uridine is 2′-fluoro; modified_base (8)..(8) gm) [ARC128, reference compound] | no longer binds PDGF | never displays an effect |  |  |  | 
5′-[40 K PEG]-(SEQ ID NO:1)-HEG-(SEQ ID NO:2)-HEG-(SEQ ID NO:3)-3′-dT-3′ (chain 1 CAGGCUACG; chain 2 CGTAGAGCAUCA; chain 3 TGATCCUG; piece 1: 2'-fluoro at 6, 8, 2'-O-methyl at 9, 5' {PEG40k}, 3' [HEG], other sugars and backbone not given here; piece 2: 2'-O-methyl at 5, 7, 12, 2'-fluoro at 10, 11, 3' [HEG], other sugars and backbone not given here; piece 3: 2'-fluoro at 5, 6, 7, 2'-O-methyl at 8, 3' [invdT], other sugars and backbone not given here) [ARC127] |  |  | 30 nM | better potency | just as potent | does not significantly reduce the in vitro activity
